How the values were obtained:
[1] = Comparative dissolution test in distillate water; format: physicochemical; conditions: 5 mg in 10 mL distillate water
Protocol: The suspension was stirred for 1, 5, 10, 15, 20, and 30 minutes and then it was filtered by 0.2 μm disposable syringe filter.

[2] = monotherapy, 108 of 3260 patients; cited from earlier work
[3] = rat, in vivo, po, 10 mg/kg
Protocol: In Vivo Pharmacokinetic Tests Male Sprague-Dawley Rats in Fasted Condition
Comparative In Vivo Pharmacokinetic Tests in Male Sprague-Dawley Rats in Fasted Condition
Both test substances were administered via gastric tube in a dosing volume of 5 ml/kg. The vehicle of the test items was sterile 0.9% NaCl solution and the suspension was kept homogenous by continuous stirring during treatment in order to minimize the error resulting from the sedimentation.
Male Wistar rats (purchased from Laboratory Animal Center, University of Szeged) were maintained on a standard pellet rodent diet (Bioplan Ltd, Isaszeg, Hungary) under temperature and light-controlled conditions with tap water available ad libitum. The acclimatization period was at least 4 days. […] All animals were fasting for 16 hours before oral treatment. […] Water was available immediately after treatment for all animals. […] Serum samples were prepared by centrifugation (7000 rpm, 10 min, 4° C.) of the clotted blood within 60 minutes and were stored at −20° C. till analysis.
An aliquot of 200 μl serum was combined with 20 μl of internal standard working solution and 1.2 ml methanol for protein precipitation. The mixture was vortexed for 1 min and centrifuged at 12000 rpm for 10 min at 4° C. The supernatants were evaporated to dryness under a stream of nitrogen at 40° C. and reconstituted with 200 μl of water-methanol (50:50 v/v) and 20 μl was injected into the HPLC system.
Statistical analysis and graph drawing were carried out be GraphPad Prism 4.0 (GraphPad Software, San Diego, USA).

[4] = cited from earlier work
[5] = cited from earlier work; remark: listed apart in the source
[6] = rats; cited from earlier work
[7] = intravenous dose of 14C-labeled Candesartan

CCOc1nc2cccc(C(=O)OC(C)OC(=O)OC3CCCCC3)c2n1Cc1ccc(-c2ccccc2-c2nnn[nH]2)cc1 (racemic) [Candesartan Cilexetil, (±)-1-Hydroxyethyl 2-ethoxy-1-[p-(o-1H-tetrazol-5-ylphenyl)benzyl]-7-benzimidazolecarboxylate, cyclohexyl carbonate (ester)]
Candesartan Cilexetil content in distilled water by UV-VIS [1]: cannot be detected | rate of withdrawals due to adverse events [2]: 3.3% | AUC15-120 min [3]: 120.8 µg·min/mL | AUC15-360 min [3]: 420.2 µg·min/mL | maximal serum Candesartan concentration (Cmax) [3]: 1612 ± 248 ng/mL | tmax [3]: 2 h | solubility in methanol ([4]; methanol): sparingly soluble | solubility in water ([4]; water): practically insoluble

CCOc1nc2cccc(C(=O)O)c2n1Cc1ccc(-c2ccccc2-c2nnn[nH]2)cc1 [Candesartan]
dose excreted unchanged in urine ([5]; administered orally): about 26% | effect of food with a high fat content on bioavailability ([5]; after Candesartan Cilexetil administration): does not affect | absolute bioavailability of Candesartan ([5]; following administration of Candesartan Cilexetil): 15% | bound to plasma proteins ([5]; in vivo): > 99% | elimination half-life ([5]; in vivo): approximately 9 hours | penetration of red blood cells ([5]; in vivo): does not penetrate red blood cells | renal clearance ([5]; in vivo): 0.19 mL/min/kg | total plasma clearance ([5]; in vivo): 0.37 mL/min/kg | volume of distribution ([5]; in vivo): 0.13 L/kg | radioactivity recovered in feces [5, 7]: approximately 36% | radioactivity recovered in urine [5, 7]: approximately 59% | accumulation in serum ([5]; repeated once-daily dosing): do not accumulate | crossing of the blood-brain barrier [6]: crosses the blood-brain barrier poorly, if at all | passage across the placental barrier [6]: passes across the placental barrier and is distributed in the fetus

Reference: US20120141561A1, “NANOPARTICULATE CANDESARTAN CILEXITIL COMPOSITIONS, PROCESS FOR THE PREPARATION THEREOF AND PHARMACEUTICAL COMPOSITIONS CONTAINING THEM” (priority 2009, published 2012)
